Results: patent publication US9737478B2, “Treatment of malaria” (National Institutes of Health (NIH), U.S. Dept. of Health …, priority 2009, dated 2017)

Legend:
[1] = test system: Plasmodium berghei ANKA (PbA); experiment: Treatment of PbA-infected mice presenting clinical cerebral malaria (survival, motor score, parasitemia); assay type: in vivo, C57B1/6 mice; settings: for survival: mice with CM
Experimental: Eight to 10-week old C57B1/6 mice (Jackson Laboratories, ME) were inoculated intraperitoneally with 1×10^6 Plasmodium berghei ANKA (PbA) parasites expressing the GFP protein (obtained from MR4-NIH, deposited by C J Anders and A Waters). Parasitemia, body weight and rectal temperature were checked daily from day 4. […] Five tests were performed: transfer arousal, locomotor activity, tail elevation, wire maneuver and righting reflex. For each test, mice received an individual score, and the sum of scores was used to create a composite score.
PbA-infected mice presenting poor righting reflex, hypothermia and/or other clinical signs of neurological involvement such as ataxia, limb paralysis, seizures and/or roll-over were treated with artemether (Artesiane, Dafra Pharma, Belgium, a kind gift of Dr Alberto Moreno, Emory University, Atlanta, Ga.) given IP at 50 mg/kg, in combination with nimodipine (Sigma, St Louis, Mo.) or vehicle (ethanol:polyethyleneglycol (PEG) 400:saline in 1:1:8 v/v). Nimodipine was dissolved in ethanol (EMD, N.J.), dispersed with polyethyleneglycol 400 (PEG, Sigma) and then saline was added (1:1:8 v/v) and mixed thoroughly. This solution was administered intraperitoneally in three different doses: 1.3 mg/kg, 4 mg/kg and 12 mg/kg. […] Parasitemia, motor behavior and rectal temperature were checked at each timepoint and daily afterwards. After treatment, parasitemia was checked by microscopical examination of Giemsa-stained blood smears to differentiate viable from dead parasites.

[2] = test system: PbA-infected mice with clinical CM; experiment: Intravital microscopy of pial vessels (closed cranial window) in PbA-infected mice with clinical CM; assay type: in vivo; settings: nimodipine 4 mg/kg IP, 30 minutes after injection
Text: Briefly, mice were anesthetized with ketamine-xylazine, the head held on a stereotaxic frame, the scalp cut off and a 3-4 mm diameter skull opening was made in the left parietal bone using a surgical drill. The exposed area was covered with a 5 mm glass cover slip glued with dental acrylic. Carprofen and ampicillin were given for 3-5 days to prevent pain, inflammation and infection. Two weeks after surgery, mice were lightly anesthetized with isoflurane (4% for induction, 1-2% for maintenance) and held on a stereotaxic frame. A panoramic picture of the window was taken and then mice were transferred to an intravital microscope stage (customized McBain, San Diego, Calif.). Body temperature was maintained using a heating pad. […] Measurements of 6-10 pial venules (diameter range: 22-80 μm, velocity range: 2-4 mm/s) and 2-6 pial arterioles (diameter range: 18-70 μm, velocity range: 3-6 mm/s) were performed in each animal, and blood flow (Q) in each individual vessel was calculated using the equation: Q=V×(D/2)2.
The next day mice were inoculated intraperitoneally with 1×10^6 PbA-GFP pRBC. The intravital microscopy procedure was repeated daily from day 4 of infection until the mice died or were euthanized. Non-infected control mice were submitted to the same procedures. […]

SMILES	survival ([1]; artemether 50 mg/kg IP daily for 5 days plus vehicle) [%]	deaths occurring in the first 36 hours ([1]; vehicle-treated group (artemether plus vehicle)) [%]	survival ([1]; adjunctive nimodipine at 4 and 12 mg/kg IP at 0, 12, 24, 36 h with artemether 50 mg/kg IP daily for 5 days)	increase in arteriolar blood flow [2]
CO[C@H]1O[C@@H]2O[C@@]3(C)CC[C@H]4[C@H](C)CC[C@@H]([C@H]1C)[C@@]24OO3 [artemether]	32.2	95.2		
COCCOC(=O)C1=C(C)NC(C)=C(C(=O)OC(C)C)C1c1cccc([N+](=O)[O-])c1 (stereo not shown) [nimodipine]			60-66.6%	about 50%
